Assay results reported in US20080213275A1, “USE OF MTKI 1 FOR TREATING OR PREVENTING BONE CANCER” (priority 2006, published 2008).

Legend:
[1] = oral gavage, once daily
[2] = tested on: NCTC2472 fibrosarcoma or MDA-MB231 breast cancer cells injected into bone; test: Evaluation of bone destruction by μCT of ipsilateral left hind limbs; assay type: in vivo, mice; conditions: tumor inoculated animals, dosed at MTD; compared with vehicle and sham
Protocol: (§1) Male C3H/HeNCrl mice for the NCTC2472 mouse fibrosarcoma cells (20-25 g, Charles River, Sulzfeld, Germany) or female NMRI Nude mice for the MDA MB 231 human breast cancer cells (Janvier, France) were used. Induction of bone cancer was carried out as previously described (Schwei et al., 1999^1). Induction of general anaesthesia was performed under 4% isoflurane in a mixture of 30% O2 and 70% air (1000 ml/ min). Anaesthesia was then maintained at 2.5% isoflurane for the duration of the surgical procedure. The left hind paw was shaved and disinfected with povidone-iodine followed by 70% ethanol. A superficial 1 cm incision was made over the knee overlaying the patella. The patella ligament was cut, exposing the condyles of the distal femur. A 23-gauge needle was inserted at the level of the intercondylar notch and the intramedullary canal of the femur to create a cavity for injection of the cells. Tumour cells (2.5×10^6 cells/20 μl) were then injected into the bone cavity using a 0.3 ml syringe. To prevent leakage of cells outside the bone, the injection site was sealed with dental acrylic (Paladur, Heraeus Kulzer, GmbH, Wehrheim, Germany) and the wound closed with skin stitches. For the sham-operated group, an identical procedure was followed except that medium without cells was injected.

[3] = tested on: NCTC2472 fibrosarcoma or MDA-MB231 breast cancer cells injected into bone; test: Spontaneous paw lifting behaviour (pain) in bone cancer model; assay type: in vivo, mice; conditions: day 14 post tumor cell inoculation; dosed at MTD by oral gavage once daily; 4 minutes observation; vehicle 80%
Protocol: as §1, with “injected. […]” for “injected.”

[4] = Tissue distribution profile; assay type: in vivo
[5] = tested on: MDA B231 bone homing clone cells; test: Bone cancer metastasis model, histological sections after 42 days; assay type: in vivo, mice; conditions: po, qd
Protocol: as §1
In the bone cancer metastasis model MDA B231 bone homing clone cells were inoculated into the tibia as described. After 42 days, animals were sacrificed and the amputated paws placed in fixative. The legs were de-calcified and sections cut to determine levels of bone destruction.

SMILES | maximum tolerated dose (MTD) [1] [mg per kg] | osteolytic bone destruction (μCt reconstructions, FIG. 2) [2] | percentage of the time the left hind paw was raised (spontaneous paw lifting) [3] | tissue distribution to bone marrow ([4]; in vivo) | blood brain barrier penetration ([4]; intact blood brain barrier) | detectable tumor in histological sections (FIG. 3) ([5]; 100 mg per kg) | signs of tumor cells and bone destruction ([5]; 100 mg per kg) | amount of tumor growth and amount of bone destruction ([5]; dose dependence)
COc1cc2ncnc(Nc3ccc(F)c(Cl)c3)c2cc1OCCCN1CCOCC1 [Iressa, reference compound] | 50 | Considerable bone loss | more than 35% | – | – | – | – | –
COc1cc2ncnc3c2cc1OCCCCCN(C)Cc1ccc(Br)cc1N3 [Compound 1, 4,6-ethanediylidenepyrimido[4,5-b][6,1,12]benzoxadiazacyclo-pentadecine, 17-bromo-8,9,10,11,12,13,14,19-octahydro-20-methoxy-13-methyl] | 200 | significantly less bone destruction | ~8% | preferential tissue distribution to the bone marrow compartment | ability to cross the intact blood brain barrier | detectable tumor is hardly present | no signs of tumor cell not any signs bone destruction | dose dependently reduced
